Values quoted from earlier work in US20250152507A1, “SUBLINGUAL COMPOSITIONS FOR ERECTILE DYSFUNCTION” (Woody's Medical LLC, priority 2023, published 2025).

System: men with mild ED
Settings: reported in C. McMahon et al., BMJ 2006

CN1CCc2cccc3c2[C@H]1Cc1ccc(O)c(O)c1-3 [Apomorphine, apomorphine]
effect in men with mild ED: only a small effect
